Assay results as given in patent US7932262B2 (Novartis AG, priority 2006, dated 2011).
Read-outs that look alike come from different tables or passages of the source.

Tests used:
PDK1 kinase = target: T1, PDK1 kinase (Homo sapiens, UniProt O15530); experiment: PDK1 Kinase Alpha Screen Assay; format: biochemical; settings: read-out: PDK1 IC50
T1 sequence (O15530 1-556): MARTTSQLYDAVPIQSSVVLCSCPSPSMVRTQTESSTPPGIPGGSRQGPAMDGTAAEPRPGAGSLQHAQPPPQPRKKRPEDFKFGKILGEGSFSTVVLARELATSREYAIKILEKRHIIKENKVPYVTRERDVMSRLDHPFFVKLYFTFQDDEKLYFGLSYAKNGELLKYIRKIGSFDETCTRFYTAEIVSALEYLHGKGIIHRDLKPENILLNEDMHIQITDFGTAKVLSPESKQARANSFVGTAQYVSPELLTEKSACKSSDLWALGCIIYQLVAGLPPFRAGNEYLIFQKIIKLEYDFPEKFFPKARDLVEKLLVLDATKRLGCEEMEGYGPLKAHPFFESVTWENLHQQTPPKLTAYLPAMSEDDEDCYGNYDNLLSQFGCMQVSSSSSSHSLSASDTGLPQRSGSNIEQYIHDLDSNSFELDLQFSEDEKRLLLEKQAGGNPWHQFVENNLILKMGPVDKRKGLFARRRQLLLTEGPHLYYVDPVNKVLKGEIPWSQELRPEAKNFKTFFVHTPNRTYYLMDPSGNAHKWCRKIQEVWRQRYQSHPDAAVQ
Method in brief: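 AlphaScreen readout: phospho-peptide captured by phospho-(Ser/Thr) PKA substrate antibody (0.3 mg/ml) on protein A acceptor beads, biotin peptide on streptavidin donor beads (25 μg/ml each), overnight at room temperature. Kinase step used 50 nM PDK1-4 peptide, 10 uM ATP, 3-18 hours.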

PC-3 cells = experiment: Cell Proliferation Assay (Cell Titer Glo), PC-3 cell line; format: cell-based; settings: Homo sapiens
Method in brief: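 Cell Titer Glo luminescence, read after fresh medium replaced the dosing medium, gave viability of PC-3 cells plated at 1000 cells/well. Compounds, 1:3 serially diluted in DMSO at 500× and then in medium, were added after 3-5 h adhesion and incubated 3 days at 37° C.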

[1] = tested on: pAkt308 (phosphorylation of Akt at T308) in PC-3 cells; experiment: pAkt T308 ECL Assay in PC-3 cells; format: cell-based; settings: Homo sapiens, 6 h, six hours with compound, read-out: PAKT308 PC3 IC50
Procedure: VI. The pAkt^T308 ECL Assay Protocol
On Day 1, PC-3 cells were seeded at 15,000 cells/well in 100 μL/well ([…]) growth media into black-walled, clear bottom, poly-L-lysine coated plates. The cells were incubated overnight in a 37° C., 5% CO2 incubator.
On Day 2, a MSD ECL plate was blocked for two hours with 150 μL per well of 3% MSD blocker A.
Test compounds were diluted to 500× in DMSO and then were subjected to further serial dilution using a BioMek 2000 instrument. DMSO diluted compounds were then diluted into growth media and then added to the cell plates.
The cell plates incubated with compounds for six hours in a 37° C., 5% CO2 incubator after which the growth medium was removed and 55 μl of MSD lysis buffer was added to cell plates on ice. The plates were lysed on ice for five minutes followed by 15 minutes of vigorous shaking on a plate shaker at 4° C. The blocked MSD assay plates were washed twice with 1×MSD wash buffer followed by the addition of cell lysate as follows: 30 μl of cell lysate was added to the pAkt308 plates and 13 μl of lysate+12 μl lysis buffer was added to the tAkt plates. The plates were then sealed and shaken at 4° C. overnight.
On Day 3, the MSD plates were washed four times with 1×MSD wash buffer then, 25 μl/well of MSD SULFO-TAG antibodies diluted to 10 nM final concentration in 1% blocker. A buffer was added to the antibody diluent which was added to assay plates. The plates were then sealed and incubated at RT for 1.5 hour. The plates were then washed twice with 1×MSD wash buffer followed by the addition of 150 μl/well of 1.5×MSD read buffer. The plates were read immediately after the addition of read buffer using a Trilux instrument. […]

A2780 cells = experiment: Cell Proliferation Assay (Cell Titer Glo), A2780; format: cell-based; settings: Homo sapiens; cell proliferation, A2780 cells; read-out: CPEC50 A2780
Method in brief: (§1)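 Following a 3-day compound exposure (37° C., 5% CO2) of A2780 or PC3MM cells plated at 1000 per well, viability was measured by Cell Titer Glo luminescence in fresh medium, read 10 min after reagent addition.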

PC3MM cells = experiment: Cell Proliferation Assay (Cell Titer Glo), PC3MM; format: cell-based; settings: cell proliferation, PC3MM cells; read-out: CPEC50 PC3MM
Method in brief: as §1

[2] = PC-3, 72 h, PC-3 cells, 3 days incubation, read-out: CP EC50 PC3
[3] = PC-3, cell proliferation, PC3 cells, read-out: CPEC50 PC3

SMILES	IC50 (PDK1 kinase) [µM]	EC50 (PC-3 cells; [2]) [µM]	IC50 [1] [µM]	IC50 (PDK1 kinase; PDK1 Kinase Alpha Screen Assay) [µM]	EC50 (A2780 cells) [µM]	EC50 (PC-3 cells; [3]) [µM]	EC50 (PC3MM cells) [µM]
COc1cc(Nc2ncc3ccc(OC4CCNCC4)cc3n2)cc(OC)c1 [Compound 55, (3,5-Dimethoxy-phenyl)-[7-(piperidin-4-yloxy)-quinazolin-2-yl]-amine]	< 5	< 5	< 5				
CC(C)NS(=O)(=O)c1ccc(Nc2ncc3ccc(OC4CCN(C(C)C)CC4)cc3n2)cc1 [Compound 58, N-Isopropyl-4-[7-(1-isopropyl-piperidin-4-yloxy)-quinazolin-2-ylamino]-benzenesulfonamide]	< 5	< 5	< 5				
Fc1ccc(Nc2ncc3ccc(OC4CCNCC4)cc3n2)cc1 [Compound 59, (4-Fluoro-phenyl)-[7-(piperidin-4-yloxy)-quinazolin-2-yl]-amine]	< 5	< 5	< 5				
CNS(=O)(=O)Cc1ccc(Nc2ncc3ccc(OC4CCN(C(C)C)CC4)cc3n2)cc1 [Compound 61, C-{4-[7-(1-Isopropyl-piperidin-4-yloxy)-quinazolin-2-ylamino]-phenyl}-N-methyl-methanesulfonamide]	< 5	< 5	< 5				
CC(=O)Nc1ccc(Nc2ncc3ccc(OC4CCNCC4)cc3n2)cc1C [Compound 63, N-{2-Methyl-4-[7-(piperidin-4-yloxy)-quinazolin-2-ylamino]-phenyl}-acetamide]	< 5	< 5	< 5				
CNC(=O)Cc1ccc(Nc2ncc3cccc(OC4CCN(C(C)C)CC4)c3n2)cc1 [Compound 70, 2-{4-[8-(1-Isopropyl-piperidin-4-yloxy)-quinazolin-2-ylamino]-phenyl}-N-methyl-acetamide]	< 5	< 5	10 to 25				
CC(C)NC(=O)Cc1ccc(Nc2ncc3cccc(OC4CCN(C(C)C)CC4)c3n2)cc1 [Compound 71, N-Isopropyl-2-{4-[8-(1-isopropyl-piperidin-4-yloxy)-quinazolin-2-ylamino]-phenyl}-acetamide]	< 5	< 5	5 to 10				
CC(C)N1CCC(Oc2cccc3cnc(Nc4ccc(N5CCOCC5)cc4)nc23)CC1 [Compound 72, [8-(1-Isopropyl-piperidin-4-yloxy)-quinazolin-2-yl]-(4-morpholin-4-yl-phenyl)-amine]	< 5	< 5	< 5				
CC(=O)Nc1ccc(Nc2ncc3cccc(OC4CCN(C(C)C)CC4)c3n2)cc1 [Compound 73, N-{4-[8-(1-Isopropyl-piperidin-4-yloxy)-quinazolin-2-ylamino]-phenyl}-acetamide]	< 5	< 5	5 to 10				
CNC(=O)Cc1cccc(Nc2ncc3cccc(OC4CCN(C(C)C)CC4)c3n2)c1 [Compound 77, 2-{3-[8-(1-Isopropyl-piperidin-4-yloxy)-quinazolin-2-ylamino]-phenyl}-N-methyl-acetamide]	< 5	< 5	< 5				
CC(=O)Nc1cccc(Nc2ncc3cccc(OC4CCN(C(C)C)CC4)c3n2)c1 [Compound 81]	< 5	< 5	< 5				
O=S(=O)(NCCN1CCCC1)c1ccc(Nc2ncc3cccc(OC4CCNCC4)c3n2)cc1 [Compound 810, 4-(8-(piperidin-4-yloxy)quinazolin-2-ylamino)-N-(2-(pyrrolidin-1-yl)ethyl)benzenesulfonamide]				< 5	< 5	< 5	< 5
NS(=O)(=O)c1ccc(Nc2ncc3cc(Br)cc(OC4CN5CCC4CC5)c3n2)cc1 (stereo not shown) [Compound 847, 4-(6-bromo-8-(quinuclidin-3-yloxy)quinazolin-2-ylamino)benzenesulfonamide]				< 5	< 5	< 5	< 5

The remaining lines, values ahead:

IC50 (PDK1 kinase) [µM]	EC50 (PC-3 cells; [2]) [µM]	IC50 [1] [µM]	IC50 (PDK1 kinase; PDK1 Kinase Alpha Screen Assay) [µM]	EC50 (A2780 cells) [µM]	EC50 (PC-3 cells; [3]) [µM]	EC50 (PC3MM cells) [µM]	SMILES
< 5	< 5	5 to 10					Nc1ncc(-c2ccc3cnc(Nc4ccc(S(N)(=O)=O)cc4)nc3c2OC2CCNCC2)cc1C(F)(F)F [Compound 68, 4-[7-(6-Amino-5-trifluoromethyl-pyridin-3-yl)-8-(piperidin-4-yloxy)-quinazolin-2-ylamino]-benzenesulfonamide]
< 5	< 5	< 5					C#Cc1cc(OC2CCN(C(C)C)CC2)c2nc(Nc3ccc(S(N)(=O)=O)cc3)ncc2c1 [Compound 86, 4-[6-Ethynyl-8-(1-isopropyl-piperidin-4-yloxy)-quinazolin-2-ylamino]-benzenesulfonamide]
			< 5	< 5	< 5	< 5	Cn1cc(-c2ccc3cnc(Nc4ccc(S(N)(=O)=O)cc4)nc3c2)cn1 [Compound 799, 4-(7-(1-methyl-1H-pyrazol-4-yl)quinazolin-2-ylamino)benzenesulfonamide]
			< 5	< 5	< 5	< 5	NS(=O)(=O)c1ccc(Nc2ncc3ccc(-c4cccnc4F)cc3n2)cc1 [Compound 800, 4-(7-(2-fluoropyridin-3-yl)quinazolin-2-ylamino)benzenesulfonamide]
			< 5	< 5	< 5	< 5	CC(C)CN1CCC(Oc2cccc3cnc(Nc4ccc(S(N)(=O)=O)cc4)nc23)CC1 [Compound 816, 4-(8-(1-isobutylpiperidin-4-yloxy)quinazolin-2-ylamino)benzenesulfonamide]
			< 5	< 5	< 5	< 5	COCCNc1ccc(-c2cccc3cnc(Nc4ccc(S(N)(=O)=O)cc4)nc23)cn1 [Compound 825, 4-(8-(6-(2-methoxyethylamlno)pyridin-3-yl)quinazoln-2-ylamino)benzenesulfonamide]
			< 5	< 5	< 5	< 5	CN1CCN(c2ccc(-c3cccc4cnc(Nc5ccc(S(N)(=O)=O)cc5)nc34)cn2)CC1 [Compound 827, 4-(8-(6-(4-methylpiperazin-1-yl)pyridin-3-yl)quinazolin-2-ylamino)benzenesulfonamide]
			< 5	< 5	< 5	< 5	NS(=O)(=O)c1ccc(Nc2ncc3cccc(-c4ccc(NCCN5CCCC5)nc4)c3n2)cc1 [Compound 830, 4-(8-(6-(2-(pyrrolidin-1-yl)ethylamino)pyridin-3-yl)-quinazolin-2-ylamino)benzenesulfonamide]
			< 5	< 5	< 5	< 5	CN1CCC(Nc2ccc3cnc(Nc4ccc(S(N)(=O)=O)cc4)nc3c2)CC1 [Compound 843, 4-(7-(1-methylpiperidin-4-ylamino)quinazolin-2-ylamino)benzenesulfonamide]
			< 5	< 5	< 5	< 5	NS(=O)(=O)c1ccc(Nc2ncc3cc(Br)cc(OC4CCNCC4)c3n2)cc1 [Compound 846, 4-(6-bromo-8-(piperidin-4-yloxy)quinazolin-2-ylamino)benzenesulfonamide]
